“Also recorded” adds a separate entry of the source.
Legend:
[1] = soxhlet extraction of dry leaves with n-hexane or methanol; cited from earlier work
[2] = test system: sheep model for pulmonary fibrosis, bleomycin-injured lung segments; experiment: Example 2: hydroxyproline assay for collagen content; type: in vivo; details: increase induced by bleomycin
Excerpt: (§1) In this study, a total of 10 sheep were used. Fibrosis in two lung segments of each sheep in a similar manner as performed in Example 1 herein. Using this procedure (as detailed further below) the fibrosis was confined to small, isolated regions in the lungs leaving the remaining 90-95% of the healthy unaffected lungs to undertake normal respiratory function.
All sheep (n=10) in the study were challenged with 2 single doses of bleomycin (3 units) per lung segment, a fortnight apart and the animals were kept for a little over 5 weeks after the final bleomycin dose. Bleomycin is a well-known agent for inducing fibrosis in the lungs. The administration procedure involves inserting a bronchoscope into lung segments in the right and left lung, and then slowly infusing the bleomycin into two segments as shown in FIG. 2 via the bronchoscope biopsy port. […]
The hydroxyproline assay was used to extrapolate the collagen content and concentration of each segment. Briefly, frozen lung tissues from each segment were lyophilized to dry weight, hydrolyzed in 6M HCl, and assessed for hydroxyproline content by measuring the absorbance of reconstituted samples (in 0.1M HCl) at 558 nm using a Beckman DU-64 spectrophotometer (Beckman Coulter Inc, Brea, Calif.). Hydroxyproline content was determined from a standard curve of trans-L-hydroxy-L-proline (Sigma-Aldrich).). […]

[3] = test system: sheep model for pulmonary fibrosis, bleomycin-injured lung segments; experiment: Example 2: histopathology scoring (H&E; inflammation, fibrosis, overall pathology); type: in vivo
Protocol: Histopathology of lung parenchyma was assessed by an experienced pathologist blinded to the treatment groups using a semi-quantitative scoring system. Briefly, the criteria used gives score indices separately for both inflammation and fibrosis pathology, and these score indices added together give an ‘overall pathology score’.
as §1
(§2) All sheep (n=10) in the study were challenged with 2 single doses of bleomycin (3 units) per lung segment, a fortnight apart and the animals were kept for a little over 5 weeks after the final bleomycin dose. Bleomycin is a well-known agent for inducing fibrosis in the lungs. The administration procedure involves inserting a bronchoscope into lung segments in the right and left lung, and then slowly infusing the bleomycin into two segments as shown in FIG. 2 via the bronchoscope biopsy port.
(§3) In the study detailed in Example 1 herein, the dose-rate of pinocembrin was 7 mg pinocembrin per sheep, per week.
For control purposes the lung segment in the opposite lung was used as a bleomycin-positive, without drug, control, as indicated in FIG. 1. The bioactive molecules in vehicle, were delivered as 5 ml infusions through the biopsy port of the bronchoscope. Note that to nullify any small differences (e.g. physiological or anatomical etc.) between the left and right lungs, the infusions of pinocembrin were randomized between the left and right caudal lung segments. Half the animals (5 sheep) received pinocembrin to the right caudal lung segments, while the other 5 sheep received pinocembrin to the left caudal lung segments. The right medial lung segment was left untreated and used for healthy lung control tissue which was sampled at autopsy (FIG. 2).
Following euthanasia, the lungs were removed, and targeted lung-segments identified and carefully dissected free from surrounding tissue. Individual segments were then inflated with a 1:1 mixture of Optimal Cutting Temperature Compound (OCT, ProSciTech Ltd Pty) and sterile PBS solution, under pressure of approximately 20 cm/H2O. Several serial transverse sections of the inflated segment were fixed in 10% neutral-buffered formalin and processed in paraffin for histopathological assessment. Remaining lung slices were embedded in OCT and frozen in cryo-moulds on aluminium boats floating on liquid nitrogen for immunochemistry analyses.
Paraffin-embedded tissue sections (5 μm) were stained with haematoxylin and eosin Y (H&E) for general histology and with Masson's trichrome staining to identify changes to collagen content within the lung parenchyma.
Histopathology of the lung parenchyma was assessed using a semi-quantitative scoring system as outline in Example 1 herein. […] For each H&E stained section, 10 consecutive, non-overlapping fields at ×20 magnification were graded based on the scoring criteria for fibrosis, inflammation and overall pathology scores as outlined in Example 1 herein. The areas were selected away from large airways and major blood vessels. Scores from all ten fields were then averaged to give representative scores for the parameters assessed in the sectioned lung segment.

[4] = test system: sheep model for pulmonary fibrosis; experiment: Example 2: overall conclusion on efficacy in sheep model of pulmonary fibrosis; type: in vivo
Excerpt: as §1, §2, §3
For control purposes the lung segment in the opposite lung was used as a bleomycin-positive, without drug, control, as indicated in FIG. 1. The bioactive molecules in vehicle, were delivered as 5 ml infusions through the biopsy port of the bronchoscope. […]

[5] = individual sheep data, 10 sheep
[6] = vs segments which received bleomycin infusion only, 4 weekly treatments of 7 mg, n=10 sheep

O=C1CC(c2ccccc2)Oc2cc(O)cc(O)c21 (stereo not drawn) [pinocembrin, 5,7-Dihydroxy-2-Phenyl-2,3-Dihydro-4H-Chromen-4-One]
temperature survived for extended periods [1]: up to 68 °C
collagen content (hydroxyproline assay) ([2]; 4 weekly treatments of 7 mg, 10 sheep (FIG. 16A)): did not reduce; also recorded: not associated with a significant decrease; also recorded: did not address the increase
collagen content (hydroxyproline assay) ([2]; all 13 sheep of Examples 1 and 2 (FIG. 16B)): does not reduce
sheep having improved fibrosis scores [3, 5]: eight out of ten
sheep having improved inflammation scores [3, 5]: nine out of ten
sheep having improved overall pathology scores [3, 5]: Nine out of ten
fibrosis score (histopathology), difference ([3]; lower than segments which received bleomycin infusion only, 4 weekly treatments of 7 mg, n=10 sheep): not statistically significant
pathology scores (all three parameters) compared with untreated control lung segments ([3]; pinocembrin-treated bleomycin segments vs untreated control segments, n=10 sheep): significantly higher
inflammation score (histopathology) [3, 6]: significantly lower; also recorded: significantly improved
overall pathology score (histopathology) [3, 6]: significantly lower; also recorded: significantly improved
anti-inflammatory properties (overall) ([4]; from BAL cell and parenchymal T cell data): strong anti-inflammatory properties
anti-fibrotic effect (overall) ([4]; from fibrosis scores, Masson's trichrome and hydroxy proline assays): modest anti-fibrotic effect
